Assay results: PubChem BioAssay (NCI)
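Where inhibition never reached the appropriate level, the endpoint shown equals the highest concentration tested. Otherwise, values were interpolated linearly from a five-concentration, 48-hour dose response in 96-well plates. TGI marks complete inhibition of growth.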

What was measured:
Experiment in all cases: inhibition of tumour cell growth, NCI panel, 48 h
[1] = test system: ACHN renal
[2] = test system: RPMI-8226 leukemia
[3] = test system: HS 578T breast
[4] = test system: SK-MEL-28 melanoma
[5] = test system: OVCAR-8 ovarian
[6] = test system: CAKI-1 renal
[7] = test system: U251 CNS
[8] = test system: NCI/ADR-RES ovarian
[9] = test system: HOP-92 NSCLC
[10] = test system: HOP-62 NSCLC
[11] = test system: SF-539 CNS
[12] = test system: SW-620 colon
[13] = test system: HCT-15 colon
[14] = test system: MDA-N
[15] = test system: HL-60(TB) leukemia
[16] = test system: OVCAR-3 ovarian
[17] = test system: MALME-3M melanoma
[18] = test system: SR leukemia

Measured: TGI

CC(C)(C)C(=O)OCOP(=O)(OCOC(=O)C(C)(C)C)OCC1OC(n2ccc(=O)[nH]c2=O)C(N=[N+]=[N-])C1O (stereo not drawn)
17.8 µM: [1]
4.84 µM: [15]
23.5 µM: [8]
8.88 µM: [11]
3.25 µM: [16]
5 µM: [9]
1.57 µM: [17]
10.7 µM: [13]
22.5 µM: [6]
15.8 µM: [14]
7.64 µM: [3]
10.5 µM: [7]
18.2 µM: [12]
12.9 µM: [5]
24 µM: [4]
5.22 µM: [2]
14.5 µM: [10]

CCOCc1c(C)cc(C)c(C2C(C(=O)c3ccccc3)N3c4ccccc4C=CC3C2(C#N)C(=O)OCC)c1C (stereo not drawn)
87 µM: [14]
not listed: [5] | [9] | [10] | [11] | [17]
> 100 µM: all other assays above

CCOC(=O)CCCNC(=O)CCCCC(=O)N(C)C
not listed: [18]
> 100 µM: all other assays above

C=C1[C@H](OC(C)=O)[C@H]2[C@@H](OC(C)=O)[C@@H](C)C[C@]2(C)C(=O)[C@H](C)/C=C/C(C)(C)C(=O)[C@H](OCC(C)C)[C@H]1OC(C)=O
not listed: [2] | [4] | [17]
> 25 µM: all other assays above

COc1ccc2c(c1)-c1nc(=S)n(CCCN(C)C)c3ccc([N+](=O)[O-])c(c13)N2
20.7 µM: [9]
1.64 µM: [15]
9.23 µM: [8]
14.4 µM: [1]
19.8 µM: [6]
2.2 µM: [14]
6.08 µM: [11]
5.6 µM: [3]
6.5 µM: [5]
18.5 µM: [16]
2.46 µM: [10]
4.31 µM: [2]
17.1 µM: [13]
2.81 µM: [4]
2.33 µM: [17]
17.7 µM: [7]
7.18 µM: [12]

O=C1N=C(SC2OC(CO)C(O)C(O)C2O)S/C1=C\c1ccccc1 (stereo not drawn)
not listed: [7] | [9]
> 100 µM: all other assays above

O=S(=O)(SC1=NCCN1)c1ccc2ccccc2c1
64 µM: [2]
54.1 µM: [7]
63.7 µM: [11]
71 µM: [13]
51.8 µM: [8]
43.9 µM: [14]
40.5 µM: [5]
69.5 µM: [10]
97.2 µM: [16]
43.6 µM: [12]
38.4 µM: [15]
not listed: [18]
> 100 µM: all other assays above

COC(=O)c1cc2c(cc1CC1Cc3cc4c(cc3C1=O)CCC4)CCC2 (stereo not drawn)
not listed: [9]
> 100 µM: all other assays above

Nc1cccnc1NCC1(CO)CCCC1
not listed: [9]
> 100 µM: all other assays above

COC(=O)CC(c1cn(S(=O)(=O)c2ccc(C)cc2)c2ccccc12)C1C[C@@H](C(=O)OC)N(C(=O)OC(C)(C)C)C1=O (stereo partly drawn)
10.4 µM: [18]
35.4 µM: [2]
65.6 µM: [11]
not listed: [9]
> 100 µM: all other assays above

CCOC(=O)c1c(NC(=O)c2cccs2)sc2c1CCC2
not listed: [4] | [7] | [9] | [12] | [17]
> 100 µM: all other assays above

Cc1cc(S(=O)(=O)Nc2nc(N)n(-c3ccccn3)n2)c(S)cc1Cl
not listed: [9]
> 100 µM: all other assays above
